Our source for the Ki values is ChEMBL document CHEMBL1124797, “A model for the antagonist binding site on the adenosine A1 receptor, based on steric, electrostatic, and hydrophobic properties” (J Med Chem, 1990).

The target of this test is T1, Adenosine receptor A1 (Rattus norvegicus, UniProt P25099).
T1 sequence (P25099 whole entry): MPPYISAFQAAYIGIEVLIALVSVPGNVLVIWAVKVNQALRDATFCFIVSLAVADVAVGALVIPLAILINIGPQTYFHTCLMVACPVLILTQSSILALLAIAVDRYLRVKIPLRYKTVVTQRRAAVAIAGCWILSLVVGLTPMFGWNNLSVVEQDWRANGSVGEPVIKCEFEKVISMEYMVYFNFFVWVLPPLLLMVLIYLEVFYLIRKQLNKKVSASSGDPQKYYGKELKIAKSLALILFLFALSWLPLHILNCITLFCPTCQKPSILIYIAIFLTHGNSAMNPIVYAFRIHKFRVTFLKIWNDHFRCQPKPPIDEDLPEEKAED
Description: Inhibition of [3H]CHA binding to Adenosine A1 receptor in rat brain membranes. Format: cell membranes.

By Ki is commonly meant the equilibrium dissociation constant of an inhibitor or competing ligand from its target. The low end stands for a stronger hold on the target, the high end for a looser hold on the target. Turning to `CCCn1c(=O)c2[nH]c(-c3ccc(Cl)cc3N)nc2n(CCC)c1=O`, the inhibition constant (Ki) is 4.8 nM.

As for `Cc1nn(C)c2c(=O)[nH]c(-c3ccc(Cl)cc3N)nc12`, the affinity, expressed as Ki, was 310 nM.
